Values after ≈ are worked out from the molar mass of the structure shown.
Tests used:
Format in all cases: functional
Staphylococcus aureus = assay: Antibacterial activity against Staphylococcus aureus
Bacillus subtilis = assay: Antibacterial activity against Bacillus subtilis
[1] = system: Staphylococcus epidermidis; assay: Antibacterial activity against Staphylococcus epidermidis
Streptococcus pyogenes = assay: Antibacterial activity against Streptococcus pyogenes
[2] = system: Staphylococcus haemolyticus; assay: Antibacterial activity against Staphylococcus haemolyticus
Enterococcus faecalis = assay: Antibacterial activity against Enterococcus faecalis
Enterococcus faecium = assay: Antibacterial activity against Enterococcus faecium

MIC (Staphylococcus aureus) [µg/mL] | MIC (Bacillus subtilis) [µg/mL] | MIC [1] [µg/mL] | MIC (Streptococcus pyogenes) [µg/mL] | MIC (Enterococcus faecalis) [µg/mL] | MIC (Enterococcus faecium) [µg/mL] | SMILES | MIC [2] [µg/mL]
4 (≈ 7.43 µM) | 4 (≈ 7.43 µM) | 4 (≈ 7.43 µM) | 4 (≈ 7.43 µM) | 4 (≈ 7.43 µM) | 4 (≈ 7.43 µM) | CN[C@@H](CC(C)C)C(=O)NCCc1c(Br)n(C)c2cc(Br)c(Br)cc12 [ALTEMATAMIDE A] | 4 (≈ 7.43 µM)
4 (≈ 7.63 µM) | 4 (≈ 7.63 µM) | 4 (≈ 7.63 µM) | 4 (≈ 7.63 µM) | 4 (≈ 7.63 µM) | 4 (≈ 7.63 µM) | CN[C@@H](CC(C)C)C(=O)NCCc1c(Br)[nH]c2cc(Br)c(Br)cc12 [ALTEMATAMIDE B] | 4 (≈ 7.63 µM)
4 (≈ 8.98 µM) | 4 (≈ 8.98 µM) | 4 (≈ 8.98 µM) | 4 (≈ 8.98 µM) | 4 (≈ 8.98 µM) | 4 (≈ 8.98 µM) | CN[C@@H](CC(C)C)C(=O)NCCc1c(Br)[nH]c2ccc(Br)cc12 [ALTEMATAMIDE C] | 4 (≈ 8.98 µM)

— ChEMBL document CHEMBL1146430, “Alternatamides A-D: new bromotryptamine peptide antibiotics from the Atlantic marine bryozoan Amathia alternata” (1997)
